≈ marks a conversion by molar mass, not a printed value. Like-named read-outs stand apart in the source and are kept apart here. No end group written: not given here.
Experiments:
[1] = tested on: E. coli UB1005; type: cell-based, Escherichia coli; details: mean of three; 16 to 20 hours at 35° C.; in µg/mL
[2] = tested on: WI38; details: MTT, 24 hours with peptide; normal fibroblast line
[3] = tested on: SW480; assay: Anti-cancer assay, MTT, LD50; type: cell-based; details: SW480 colon adenocarcinoma line, 24 hours with peptide
Description: (§1) Numbers are LD50 values (μg/mL).

[4] = tested on: PC3; assay: Anti-cancer assay, MTT, LD50; type: cell-based; details: 24 hours with peptide, prostate adenocarcinoma
Description: as §1

[5] = tested on: HeLaS3; assay: Anti-cancer assay, MTT, LD50; type: cell-based; details: 24 hours with peptide, cervical carcinoma
Description: as §1

[6] = tested on: H1299; assay: Anti-cancer assay, MTT, LD50; type: cell-based; details: 24 hours with peptide, lung large cell carcinoma
Description: as §1

[7] = tested on: BMKC; assay: Anti-cancer assay, MTT, LD50; type: cell-based; details: BMKC cloned melanoma line, 24 hours with peptide
Description: as §1

[8] = tested on: MCF7; assay: Anti-cancer assay, MTT, LD50; type: cell-based; details: MCF7 breast adenocarcinoma line, MTT, 24 hours with peptide
Description: as §1

[9] = tested on: S. pyogenes ATCC19615; assay: Antimicrobial assays II, NCCLS broth microdilution MIC; type: cell-based, Streptococcus pyogenes; details: mean of three, in µg/mL
[10] = tested on: S. pyogenes M76; assay: as above; type: cell-based, Streptococcus pyogenes; details: mean of three; 16 to 20 hours at 35° C.
[11] = tested on: S. pneumoniae C719; assay: as above; type: cell-based, Streptococcus pneumoniae; details: mean of three, in µg/mL
[12] = tested on: P. aeruginosa; type: cell-based, Pseudomonas aeruginosa; details: P. aeruginosa H744; MIC of nalidixic acid with peptide at ¼ MIC
Summary of the method: (§2)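 Synergy against efflux-mutant strains: two-fold dilutions of nalidixic acid or chloramphenicol tested with peptide held at ¼ of its MIC.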

[13] = tested on: P. aeruginosa H774; type: cell-based, Pseudomonas aeruginosa; details: P. aeruginosa H744; nalidixic acid + peptide at ¼ MIC; 0.5 or less = synergy
Summary of the method: as §2

[14] = tested on: P. aeruginosa H374; type: cell-based, Pseudomonas aeruginosa; details: for MIC Cm-comb.: MIC of chloramphenicol with peptide at ¼ MIC; for MIC Nal-comb.: MIC of nalidixic acid with peptide at ¼ MIC; for FIC Index: 0.5 or less = synergy
Summary of the method: as §2

[15] = tested on: P. aeruginosa H374; type: cell-based, Pseudomonas aeruginosa; details: mean of three; 16 to 20 hours at 35° C.
[16] = in vitro; details: human, WI38 normal lung fibroblast cells, LD50 WI38, WI38 normal lung fibroblast line, MTT, 24 hours with peptide
[17] = tested on: S. epidermidis C621; type: cell-based, Staphylococcus epidermidis; details: mean of three; 16 to 20 hours at 35° C.
[18] = tested on: S. typhimurium 14028S; type: cell-based, Salmonella typhimurium; details: mean of three; 16 to 20 hours at 35° C.; in µg/mL
[19] = in vitro; type: cell-based, human; details: human, human red blood cells, pH 7, hemolytic assay, concentration at 50% hemolysis, 1 hour at 37° C.; read-out: LD50
[20] = tested on: S. pneumoniae C718; assay: Antimicrobial assays II, NCCLS broth microdilution MIC; type: cell-based, Streptococcus pneumoniae; details: mean of three
[21] = tested on: P. acne ATCC 6919; assay: as above; type: cell-based, Propionibacterium acnes; details: mean of three, in µg/mL
[22] = tested on: S. aureus (MRSA); type: cell-based, Staphylococcus aureus; details: mean of three; 16 to 20 hours at 35° C.
[23] = tested on: yeast (Saccharomyces cerevisiae); assay: Antimicrobial assay I, yeast assay in RPMI 1640; type: cell-based; details: RPMI 1640 media
[24] = tested on: Pseudomonas aeruginosa ATCC 9027; assay: Antimicrobial assay I, MIC by OD measurement; type: cell-based; details: 37° C. for 24 hours, absorbance 620 nm
[25] = tested on: Staphylococcus aureus ATCC 6538; assay: Antimicrobial assay I, MIC by OD measurement; type: cell-based; details: 37° C. for 24 hours, absorbance 620 nm
[26] = chloramphenicol + peptide at ¼ MIC
[27] = nalidixic acid + peptide at ¼ MIC, FIC=0.25+MIC comb/MIC alone

Compound	WI38 LD50 [2] [µg/mL]	LD50 SW480 [3] [µg/mL]	PC3 LD50 [4] [µg/mL]	HeLaS3 LD50 [5] [µg/mL]	H1299 LD50 [6] [µg/mL]	LD50 BMKC [7] [µg/mL]	LD50 MCF7 [8] [µg/mL]	S. pyogenes MIC [9]	S. pyogenes M76 MIC [10] [µg/mL]	S. pneumoniae MIC [11]	MIC Nal-comb. [12] [µg/mL]	FIC Index [13]	MIC Cm-comb. [14] [µg/mL]	MIC Nal-comb. [14] [µg/mL]	FIC Index [14, 26]	FIC Index [14, 27]	CC50 at 24 h [16] [µg/mL]	S. epidermidis C621 MIC [17] [µg/mL]	HC50 at 1 h [19] [µg/mL]	S. pneumoniae MIC [20] [µg/mL]	further results
CC(C)C[C@H](NC(=O)[C@H](C)NC(=O)[C@H](CC(C)C)NC(=O)[C@H](CCCCN)NC(=O)[C@H](C)NC(=O)[C@H](CC(C)C)NC(=O)[C@H](CCCCN)NC(=O)[C@H](CCCCN)NC(=O)[C@H](C)NC(=O)[C@H](CC(C)C)NC(=O)[C@H](CCCCN)NC(=O)[C@H](C)NC(=O)[C@H](CC(C)C)NC(=O)[C@H](CCCCN)NC(=O)[C@H](CCCCN)NC(=O)[C@H](C)NC(=O)[C@@H](N)Cc1ccccc1)C(=O)O [P61]	93	100	66	170	127	140	105	16	16	32	624	1.25	16	5000	1.25	1.25	93 (≈ 50.1 µM)	8	390	128	E. coli UB1005 MIC [1]: 2; P. aeruginosa H374 MIC [15]: 4 µg/mL; S. typhimurium 14028S MIC [18]: 4; P. acne MIC [21]: 2; S. aureus (MRSA) MIC [22]: 32 µg/mL
FAKLLAKALKKFAL-NH2 [P119, FAKLLAKALKKFAL-NH2]	45	46	140	30	33	36	54	8	8	32	624	1.25	16	2500	1.25	0.75	45	4	400	128	yeast (MIC or MFC) [23]: 50 µg/mL; paerug9027 (MIC) [24]: 25 µg/mL; staph6538 (MIC) [25]: 50 µg/mL; P. acne MIC [21]: 8; S. aureus (MRSA) MIC [22]: 8 µg/mL
FALAAKALKKLAKKLKKLAKKAL-NH2 [P23]	34	5	41	82	64	27	62	8	16	16	624	1.25	8	2500	0.75	0.75	34	16	300	16	yeast (MIC or MFC) [23]: 100 µg/mL; paerug9027 (MIC) [24]: 50 µg/mL; staph6538 (MIC) [25]: 5 µg/mL; P. acne MIC [21]: 4; S. aureus (MRSA) MIC [22]: 32 µg/mL
FAKKLAKLALKLAKL-NH2 [P44]	36	32	45	22	72	47	140	4	4	16	624	1.25	16	5000	1.25	1.25	36	4	90	8	yeast (MIC or MFC) [23]: 50 µg/mL; paerug9027 (MIC) [24]: 5 µg/mL; staph6538 (MIC) [25]: 5 µg/mL; P. acne MIC [21]: 4; S. aureus (MRSA) MIC [22]: 8 µg/mL
KYKKALKKLAKLL-NH2 [P146]	270	380	440	640	93	185	110	8	8	128	624	1.25	4	625	0.5	0.375	270	8	180	> 128	yeast (MIC or MFC) [23]: 50 µg/mL; paerug9027 (MIC) [24]: 10 µg/mL; staph6538 (MIC) [25]: 10 µg/mL; P. acne MIC [21]: 16; S. aureus (MRSA) MIC [22]: 16 µg/mL

From US20050209157A1, “Short bioactive peptides and methods for their use” (priority 2001, published 2005)
